Values of other authors as cited in patent US6500833B1, “(+)-Hydroxyrisperidone compositions and methods” (priority 1998, dated 2002).

Conditions: condition associated with torsades de pointes

Structure (SMILES) | prolongation of QT interval
Cc1nc2n(c(=O)c1CCN1CCC(c3noc4cc(F)ccc34)CC1)CCCC2O (racemic) [hydroxyrisperidone, 9-hydroxyrisperidone] | implicated in a prolongation of QT interval
Cc1nc2n(c(=O)c1CCN1CCC(c3noc4cc(F)ccc34)CC1)CCCC2 [risperidone, Risperidone] | implicated in a prolongation of QT interval
